Patent US10870832B2, “Use of small molecules to enhance MAFA expression in pancreatic endocrine cells” (Janssen Biotech, Inc., priority 2014, dated 2020)

How the values were obtained:
Assay type in all cases: cell-based, human
MAFA expression [1] = assay: Stage 7 treatment, real-time PCR of MAFA (Example 7); settings: Stage 7, day 14, 2 μM R428 or 2-5 μM inhibitor substituted for R428, H1-derived cells, mRNA
Procedure: (§1) Cells of the human embryonic stem cell line H1 (WA01) were seeded as single cells at 1×10^5 cells/cm^2 on MATRIGEL™ (1:30 dilution) coated dishes in E8 media. At about 70 to 80% confluency, the cultures were washed in 1× incomplete DPBS followed by incubation with 1× TrypLE™ Express Enzyme for 3 to 5 minutes at 37° C. The released cells were rinsed with E8 and spun at 1000 rpm for 5 minutes. The resulting cell pellet was resuspended in E8 supplemented with 10 μM Y-27632 and the single cell suspension was seeded at approximately 1.3 to 1.5×10^5 cells/cm^2. The cultures were fed every day with E8 medium and differentiation, according to the following protocol, was initiated 48 hrs. following seeding resulting in an about 90% starting confluency.
Stage 6 cells were cultured for fourteen days in BLAR medium supplemented with a 1:100 dilution of ITS-X; 20 mM glucose (final); 1.5 g/L sodium bicarbonate; 2% FAF-BSA; 10 μg/ml of heparin, 10 μM ZnSO4, 1 μM T3 as 3,3′, 5-triiodo-L-thyronine sodium salt, 10 μM ALK5 inhibitor II, 1 mM N-acetyl cysteine. Some cultures also included one of 2 μM R428, 2-5 μM RSK inhibitor II (2-(3,5-Difluoro-4-hydroxy-anilino)-8-isopentyl-5,7-dimethyl-7H-pteridin-6-one) (EMD Millipore; Catalog No, 559286-5MG), 2-5 μM aurora kinase inhibitor II (EMD Millipore, or a combination of 2-5 μM RSK inhibitor II and 2-5 μM aurora kinase II inhibitor.
At Stage 7, day 14, mRNA was collected and compared to undifferentiated human stem cells.

MAFA expression [2] = assay: Small molecule screen at Stage 6 or 7, real-time PCR (Example 2); settings: added at Stage 7, 1 μM, H1-derived cells at air-liquid interface
Procedure: Cells of the human embryonic stem cell line H1 (WA01) at passage 42 were seeded as single cells at 1×10^5 cells/cm^2 on MATRIGEL™ (1:30 dilution)-coated dishes in a media comprising of DMEM-F12, GlutaMAX™ (1:100 dilution), 0.25 mM ascorbic acid, 100 ng/ml of FGF2 (R & D systems, MN), 1 ng/ml of TGF-β, ITS-X (1:100 dilution), 2% FAF-BSA, and 20 ng/ml of IGF-1, supplemented with 10 μM of Y-27632. Forty-eight hours post-seeding, the cultures were washed in incomplete PBS (phosphate buffered saline without Mg or Ca) followed by incubation with 1× TrypLE™ Express Enzyme (Life Science; Catalog No. 14190) for 3 to 5 minutes at 37° C. The released cells were rinsed with DMEM-F12 and spun at 1000 rpm for 5 minutes. The resulting cell pellet was resuspended in DMEM-F12 supplemented with 10 μM Y-27632, 1× GlutaMAX™, 0.25 mM ascorbic acid, 100 ng/ml FGF2, 1 ng/ml TGF-β, ITS-X at a 1:100 dilution, 2% FAF-BSA and 20 ng/ml of IGF-1 and the single cell suspension was seeded at approximately 1.3 to 1.5×10^5 cells/cm^2. The cultures were fed every day with medium and differentiation, according to the following protocol, was initiated 48 hours following seeding resulting in an about 90% starting confluency. […]
At Stages 6 or 7, various small molecules were added and their effect was evaluated by real-time PCR.

G6PC2 expression = assay: Stage 7 treatment, real-time PCR of G6PC2 (Example 6); settings: Stage 7, day 7, 2 μM in Stage 7 medium, H1-derived cells, mRNA
Procedure: as §1, with “TrypLET™” for “TrypLE™”
Stage 6 cells were cultured for seven days in BLAR medium supplemented with a 1:100 dilution of ITS-X; 20 mM glucose (final); 1.5 g/L sodium bicarbonate; 2% FAF-BSA; 10 μg/ml of heparin, 10 μM ZnSO4, 1 μM T3 as 3,3′, 5-triiodo-L-thyronine sodium salt, 10 μM ALK5 inhibitor II, 1 mM N-acetyl cysteine. […]
At Stage 7, day 7, mRNA was collected and expression of MAFA, UCN3, PDX1, NKX6.1, insulin and G6PC2 evaluated as compared to undifferentiated human stem cells. […]

Nc1nc(Nc2ccc3c(c2)CC[C@@H](N2CCCC2)CC3)nn1-c1cc2c(nn1)-c1ccccc1CCC2 [R428, 1H-1,2,4-Triazole-3,5-diamine, 1-(6,7-dihydro-5H-benzo[6,7]cyclohepta[1,2-c]pyridazin-3-yl) N3-[(7S)-6,7,8,9-tetrahydro-7-(1-pyrrolidinyl)-5H-benzocyclohepten-2-yl]-]
MAFA expression (MAFA expression [1]): removal of R428 resulted in a significant decrease in MAFA expression
expression of MAFA as compared to untreated cultures (MAFA expression [2]): significantly upregulated
G6PC2 expression (G6PC2 expression): reduces other beta cell maturation markers
